Results published in patent US9867879B2 (Vanderbilt University, priority 2015, dated 2018).
pEC50, pIC50: −log10 of the molar value. Values after ≈ are worked out from the molar mass of the structure shown. “Also recorded” adds a separate entry of the source. Read-outs that look alike come from different tables or passages of the source.

How the values were obtained:
[1] = test system: heme biosynthetic pathway; experiment: Accumulation of heme precursor molecules; format: cell-based, S. aureus; conditions: data not shown
Source text: Because ALA is the first committed precursor molecule in the heme biosynthetic pathway, if ALA is contacted with bacteria, the bacteria will generated enhanced amounts of all of the heme precursor molecules downstream of ALA.

HssRS = experiment: microbe, parasite or virus in culture; format: cell-based, S. aureus; conditions: for pEC50 / EC50: Staphylococcus aureus, 6 h; for EC50: read-out: pEC50 (converted); for Efficacy: percent activation of HssRS compared to 1 at 50 μM, error one standard deviation; for HssRS activation in single point screen: 50 μM, fraction of activation relative to 1, cut-off 0.05, in words
Description: Previously reported strains were used.^11 Cultures grown overnight in 5 ml TSB with 10 μg mL^−1 chloramphenicol for 15-18 h were subcultured 1:100 into 0.5 mL TSB with 10 μg mL^−1 chloramphenicol containing compound and incubated at 37° C., 180 rpm for 6 h. Cells were washed and lysed as previously described. 200 μL of a 200 μM catechol solution in 100 mM potassium phosphate (pH 8.0) was added to 20 μL of lysate and the oxidation of catechol was followed by monitoring absorbance at 375 nm for 10 min. Samples were normalized to protein concentration as determined by BCA assay (Pierce).
The above XylE procedure was followed using different concentrations of compound. The data were then entered into Graphpad Prism 6 and fit to a curve to determine EC50 values.
HssRS activation. The library was screened for activation of the heme stress response as an indicator for activation of heme biosynthesis in S. aureus. We began by screening at the single point concentration of 50 μM using a previously described reporter assay (FIG. 4).^11 In this assay, Newman harboring a plasmid with the hrt promoter fused to xylE, a gene encoding a catechol oxidase, is treated with compound for six hours, the bacteria lysed, and the oxidation of catechol by XylE quantified by spectrophotometry. An increase in absorbance due to the oxidation of catechol indicates elevated levels of xylE transcription and hrt promoter activity. Results are expressed as the fraction of activation of HssRS by the compound compared to 1. […] With reference to FIG. 8, activation of HssRS by 3a and 3b at 50 μM. Activity is presented as the fraction of activation by the indicated derivative relative to 1 at 50 μM.

ΔmenB = experiment: Growth inhibition IC50, ΔmenB; format: cell-based, S. aureus; conditions: Staphylococcus aureus, 9 h, read-out: IC50 ΔmenB
Description: Cultures of wild type S. aureus strain Newman and ΔmenB^14 were grown in aeration tubes aerobically at 37° C. with shaking for 15-18 h. Anaerobic cultures were prepared by growing bacteria at 37° C. without shaking in an anaerobic chamber for 15-18 h. Bacteria from each condition were subcultured 1:100 into TSB containing various concentrations of compound in a 96 well plate. Aerobic wild type and ΔmenB plates are incubated aerobically at 37° C. with shaking while anaerobic plates were grown in an anaerobic chamber (Coy) at 37° C. without shaking. The absorbance at 600 nm (OD600) was determined after 9 h of growth and the fraction of growth at each compound concentration is determined by dividing the OD600 by the vehicle control (DMSO) value. IC50s were calculated using Graphpad Prism 6 and errors are reported as 95% confidence intervals. […]

S. aureus [2] = conditions: earlier method, low cell density; cited from earlier work
[3] = test system: wild type S. aureus strain Newman; experiment: Growth inhibition IC50, Newman anaerobic (fermenting); format: cell-based; conditions: for pIC50: Staphylococcus aureus, NEWMAN, 9 h of growth, anaerobic chamber, 95% confidence interval, >60 μM considered nontoxic; for toxicity to fermenting / anaerobic S. aureus (in words): anaerobic Newman and ΔmenB, from IC50 data
Description: (§1) Cultures of wild type S. aureus strain Newman and ΔmenB^14 were grown in aeration tubes aerobically at 37° C. with shaking for 15-18 h. Anaerobic cultures were prepared by growing bacteria at 37° C. without shaking in an anaerobic chamber for 15-18 h. Bacteria from each condition were subcultured 1:100 into TSB containing various concentrations of compound in a 96 well plate. Aerobic wild type and ΔmenB plates are incubated aerobically at 37° C. with shaking while anaerobic plates were grown in an anaerobic chamber (Coy) at 37° C. without shaking. The absorbance at 600 nm (OD600) was determined after 9 h of growth and the fraction of growth at each compound concentration is determined by dividing the OD600 by the vehicle control (DMSO) value. IC50s were calculated using Graphpad Prism 6 and errors are reported as 95% confidence intervals.
(§2) Wild type S. aureus strain Newman was grown in an anaerobic chamber in appropriate media to ensure exclusion of terminal electron acceptors sufficient to force the bacteria to ferment. […] The arbitrary cut off point for toxicity of 60 μM was chosen as many of the compounds were not entirely soluble above this concentration.

[4] = test system: wild type S. aureus strain Newman; experiment: Growth inhibition IC50, Newman aerobic; format: cell-based; conditions: 95% confidence interval, >60 μM considered nontoxic
Description: as §1, §2

S. aureus [5] = experiment: Heme adaptation assay; format: cell-based; conditions: subculture into 20 μM heme
Description: Overnight cultures of S. aureus were subcultured into 500 μL TSB containing compound in 1.5 mL tubes and incubated at 37° C. with shaking for 15 h. Bacteria from the compound treated cultures were then subcultured 1:100 into 100 μL TSB containing heme and incubated at 37° C. with shaking for 8 h. Growth was monitored by reading the OD600 on a Biotek microplate reader at the defined time intervals.
Finally, the top activators were assayed for their ability to preadapt S. aureus to heme as an indication that they can activate HssRS outside the context of a reporter assay. Pretreatment of cultures with a compound that induces HrtAB expression through activation of HssRS at subtoxic concentrations allows the bacteria to survive and grow when subcultured into a toxic concentration of heme. Pretreatment with 4 μM heme, 40 μM 1, and vehicle with 40 μM of each of the top activators were compared (excluding 2d because of toxicity). All derivatives were able to preadapt S. aureus to a toxic concentration of heme (20 μM) as well as 4 μM heme and 40 μM 1 (FIG. 5). The discrepancy between XylE assay and heme adaptation activity is likely due to the length of treatment with compound (6 h vs. 15 h).

Solubility limit = format: physicochemical
S. aureus infection = conditions: previously reported; cited from earlier work
[6] = Staphylococcus aureus, NEWMAN, 9 h, read-out: IC50 Newman aerobic, 9 h of growth, aerobic

Row | SMILES | pEC50 (HssRS) | EC50 (HssRS) | Efficacy (HssRS) | pIC50 (ΔmenB) | pIC50 [3] | toxicity to fermenting / anaerobic S. aureus (in words) [3] | pIC50 [4, 6] | preadaptation to heme toxicity (S. aureus [5]; pretreatment 40 μM compound) | further results
1 | NCC(=O)CCC(=O)O [ALA, reference compound] |  |  |  |  |  |  |  |  | accumulation of PBG [1]: results in accumulation of PBG
2 | Oc1c(-c2cc(-c3ccco3)[nH]n2)ccc2ccccc12 [Compound 1] | 4.94 | 12.6 µM | 100% | 5.78 | 4.87 | intermediate between the two | < 4.22 |  | anaerobic toxicity (previously reported) (S. aureus [2]): toxic to S. aureus growing anaerobically
3 | O=C(Nc1ccccc1-c1cc(-c2ccco2)[nH]n1)c1cc(Cl)cc(Cl)c1 [Compound 1i, 3,5-dichloro-N-(2-(5-(furan-2-yl)-1H-pyrazol-3-yl)phenyl)benzamide] |  |  |  | 5.06 | 4.71 |  | < 4.22 | indistinguishable from vehicle | 
4 | Oc1ccccc1-c1cc(-c2cccs2)[nH]n1 [Compound 2a, 2-(5-(thiophen-2-yl)-1H-pyrazol-3-yl)phenol] |  |  | 17.0 ± 2.9% | < 4.22 | < 4.22 |  | < 4.22 |  | solubility (Solubility limit): ~80 µM (≈ 19.4 µg/mL)
5 | Oc1ccccc1-c1cc(-c2ccccc2O)[nH]n1 [Compound 2d, 2,2′-(1H-pyrazole-3,5-diyl)diphenol] | 5.24 | 5.75 µM |  | 5.03 | 4.80 | anaerobic toxicity similar to 1; also recorded: exhibits both activities | 4.37 |  | preadaptation to heme toxicity (S. aureus [5]; pretreatment 20 μM compound): excellent preadaptation to heme toxicity; pIC50 ([4]; read-out: IC50 Newman aerobic, 9 h of growth, aerobic): 4.37
6 | Oc1ccccc1-c1cc(-c2ccccc2F)[nH]n1 [Compound 2e] | 4.97 | 10.7 µM | 35.7 ± 10.1% | < 4.22 | < 4.22 | eliminates this toxicity; also recorded: not bacteriostatic under the conditions tested here; also recorded: removes toxicity | < 4.22 |  | HssRS activation in single point screen (HssRS): comparable to 1a in activity; drop in efficacy (HssRS; compared to 1): ~70%; anaerobic toxicity (previously reported) (S. aureus [2]): anaerobic toxicity; efficacy in mouse model of S. aureus infection (S. aureus infection): efficacy in a mouse model of S. aureus infection
7 | Oc1ccccc1-c1cc(-c2ccncc2)[nH]n1 [Compound 2i] |  |  |  | < 4.22 | < 4.22 |  | < 4.22 | indistinguishable from vehicle | 
8 | CCCCCc1cc(-c2ccccc2O)n[nH]1 [Compound 2o, 2-(5-pentyl-1H-pyrazol-3-yl)phenol] |  |  |  | 4.88 | 4.94 | comparably toxic to 1 | 4.31 | indistinguishable from vehicle | 
9 | COc1ccccc1-c1cc(-c2ccccc2)[nH]n1 [Compound 3a, 3-(2-methoxyphenyl)-5-phenyl-1H-pyrazole] |  |  |  | 4.60 | 4.68 | maintaining toxicity | < 4.22 | indistinguishable from vehicle | HssRS activation (in words) (HssRS; summary statements, concentration not fixed): removes HssRS activity
10 | Cn1nc(-c2ccc3ccccc3c2O)cc1-c1ccco1 [Compound 4b, 2-(5-(furan-2-yl)-1-methyl-1H-pyrazol-3-yl)naphthalen-1-ol] |  |  |  | 5.48 | 5.37 |  | < 4.22 |  | HssRS activation in single point screen (HssRS): complete loss of activity
